From ChEMBL document CHEMBL3779778, “Structure-based design and development of (benz)imidazole pyridones as JAK1-selective kinase inhibitors” (Bioorg Med Chem Lett, 2016)

Tests used:
[1] = Dissociation constant, pKa of the compound; assay type: physicochemical
[2] = Intrinsic clearance in human hepatocytes; assay type: ADME, cell-based, Hepatocyte; details: read-out: CLH
[3] = Intrinsic clearance in human liver microsomes; assay type: ADME; details: read-out: CLH

Compound `O=c1[nH]ccc(N[C@H]2CC[C@@H](NCCF)CC2)c1-c1nc2ccccc2[nH]1` has a pKa [1] of 8.8.

For `COCCN[C@H]1CC[C@@H](Nc2cc[nH]c(=O)c2-c2nc3ccccc3[nH]2)CC1`, the pKa [1] was 9.2.

`N[C@H]1CC[C@@H](Nc2cc[nH]c(=O)c2-c2nc3ccccc3[nH]2)CC1` showed a CLint scaled [2] of 12 mL/min/kg and a CLint scaled [3] of under 15 mL/min/kg.

`O=c1[nH]ccc(N[C@H]2CC[C@@H](NCC(F)F)CC2)c1-c1nc2ccccc2[nH]1` gave a pKa [1] of 6.6.

In the case of `O=c1[nH]ccc(N[C@H]2CC[C@@H](NCC(F)(F)F)CC2)c1-c1nc2ccccc2[nH]1`, the pKa [1] is reported as 4.8.

With `CCN[C@H]1CC[C@@H](Nc2cc[nH]c(=O)c2-c2nc3ccccc3[nH]2)CC1` the pKa [1] was 10.5.
